Laboratory results published in patent publication US20240025884A1 (Dong-A ST Co., Ltd., priority 2022, published 2024).
pIC50: −log10 of the molar value.

molecular target: GCN2 (Homo sapiens (Human), UniProt Q9P2K8); assay: GCN2 Biochemical Assay (TR-FRET, GFP-eIF2S1 substrate phosphorylation); details: read-out: IC50 (GCN2 Inhibitory Activity)
In short: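 In-house GCN2 (1.6 nM 2× stock) phosphorylates GFP-eIF2S1 (50 nM 2× stock) with ATP (0.2 mM 2× stock) and tRNA, pH 7.5, 70 min at room temperature; 10-point 3.16-fold compound series. TR-FRET detection with Tb-anti-phospho antibody, 2–3 h, Ex 340/Em 490/520 nm; artifact plate spiked with phospho-substrate.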

GCN2, sequence (Q9P2K8 whole entry): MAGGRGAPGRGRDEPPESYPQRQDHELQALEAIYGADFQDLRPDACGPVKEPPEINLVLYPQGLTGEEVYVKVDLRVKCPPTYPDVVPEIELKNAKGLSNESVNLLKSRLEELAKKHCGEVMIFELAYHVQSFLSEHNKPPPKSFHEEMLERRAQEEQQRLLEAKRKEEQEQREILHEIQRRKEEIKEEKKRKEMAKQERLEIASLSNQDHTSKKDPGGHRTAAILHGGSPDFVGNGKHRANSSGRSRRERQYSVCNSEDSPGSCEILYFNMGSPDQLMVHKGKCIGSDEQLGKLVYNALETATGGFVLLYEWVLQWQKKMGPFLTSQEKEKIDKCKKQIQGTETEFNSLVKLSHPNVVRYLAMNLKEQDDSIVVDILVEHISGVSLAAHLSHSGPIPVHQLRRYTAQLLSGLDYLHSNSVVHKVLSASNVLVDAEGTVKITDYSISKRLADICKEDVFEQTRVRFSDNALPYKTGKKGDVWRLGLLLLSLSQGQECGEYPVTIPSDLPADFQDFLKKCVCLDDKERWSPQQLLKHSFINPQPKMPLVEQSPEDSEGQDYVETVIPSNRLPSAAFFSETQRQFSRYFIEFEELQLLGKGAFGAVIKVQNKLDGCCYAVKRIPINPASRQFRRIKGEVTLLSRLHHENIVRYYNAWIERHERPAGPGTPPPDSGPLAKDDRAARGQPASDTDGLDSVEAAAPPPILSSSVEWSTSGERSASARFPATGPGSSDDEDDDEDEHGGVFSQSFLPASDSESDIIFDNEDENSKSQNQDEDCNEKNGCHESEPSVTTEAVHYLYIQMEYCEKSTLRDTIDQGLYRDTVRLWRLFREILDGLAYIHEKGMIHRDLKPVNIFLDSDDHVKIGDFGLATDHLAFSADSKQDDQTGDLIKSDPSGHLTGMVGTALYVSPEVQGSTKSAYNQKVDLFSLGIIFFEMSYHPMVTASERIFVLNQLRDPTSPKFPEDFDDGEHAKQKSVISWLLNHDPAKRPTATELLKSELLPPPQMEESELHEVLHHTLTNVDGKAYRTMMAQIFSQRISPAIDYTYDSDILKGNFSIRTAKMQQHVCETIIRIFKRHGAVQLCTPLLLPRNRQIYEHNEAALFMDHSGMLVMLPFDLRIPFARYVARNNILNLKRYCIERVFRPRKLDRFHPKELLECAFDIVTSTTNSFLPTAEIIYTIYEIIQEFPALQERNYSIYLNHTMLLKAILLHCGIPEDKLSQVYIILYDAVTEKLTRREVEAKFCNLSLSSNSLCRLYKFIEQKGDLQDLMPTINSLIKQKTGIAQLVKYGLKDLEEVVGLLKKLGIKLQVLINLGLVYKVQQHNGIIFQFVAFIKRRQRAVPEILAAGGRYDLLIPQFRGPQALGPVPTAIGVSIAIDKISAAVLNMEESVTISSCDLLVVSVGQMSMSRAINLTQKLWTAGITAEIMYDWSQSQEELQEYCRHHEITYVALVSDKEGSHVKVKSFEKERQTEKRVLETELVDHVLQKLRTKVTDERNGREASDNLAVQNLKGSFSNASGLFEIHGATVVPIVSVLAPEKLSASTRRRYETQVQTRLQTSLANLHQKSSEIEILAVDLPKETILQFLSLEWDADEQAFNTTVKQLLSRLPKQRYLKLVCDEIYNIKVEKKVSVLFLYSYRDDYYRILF

SMILES	pIC50
Cc1cnc(Nc2cc(C)n(C)n2)nc1-c1c[nH]c2c(NC(=O)CN3CC[C@H](Oc4ccon4)C3)cccc12 [Example 118, (S)-N-(3-(2-((1,5-dimethyl-1H-pyrazol-3-yl)amino)-5-methylpyrimidin-4-yl)-1H-indol-7-yl)-2-(3-(isoxazol-3-yloxy)pyrrolidin-1-yl)acetamide]	> 8.00
Cc1cnc(Nc2cc(C)n(C)n2)nc1-c1c[nH]c2c(NC(=O)CN3CC[C@H](Oc4cc(N)[nH]n4)C3)cccc12 [Example 119, (S)-2-(3-((5-amino-1H-pyrazol-3-yl)oxy)pyrrolidin-1-yl)-N-(3-(2-((1,5-dimethyl-1H-pyrazol-3-yl)amino)-5-methylpyrimidin-4-yl)-1H-indol-7-yl)acetamide]	7.00 to 8.00
COC(=O)c1[nH]ccc1O[C@H]1CCN(CC(=O)Nc2cccc3c(-c4nc(Nc5cc(C)n(C)n5)ncc4C)c[nH]c23)C1 [Example 120, methyl (S)-3-((1-(2-((3-(2-((1,5-dimethyl-1H-pyrazol-3-yl)amino)-5-methylpyrimidin-4-yl)-1H-indol-7-yl)amino)-2-oxoethyl)pyrrolidin-3-yl)oxy)-1H-pyrrole-2-carboxylate]	> 8.00
CCOC(=O)c1cnoc1O[C@H]1CCN(CC(=O)Nc2cccc3c(-c4nc(Nc5cc(C)n(C)n5)ncc4C)c[nH]c23)C1 [Example 121, ethyl (S)-5-((1-(2-((3-(2-((1,5-dimethyl-1H-pyrazol-3-yl)amino)-5-methylpyrimidin-4-yl)-1H-indol-7-yl)amino)-2-oxoethyl)pyrrolidin-3-yl)oxy)isoxazole-4-carboxylate]	> 8.00
Cc1cnc(Nc2cc(C)n(C)n2)nc1-c1c[nH]c2c(NC(=O)CN3CC[C@H](Oc4cc(C(N)=O)on4)C3)cccc12 [Example 122, (S)-3-((1-(2-((3-(2-((1,5-dimethyl-1H-pyrazol-3-yl)amino)-5-methylpyrimidin-4-yl)-1H-indol-7-yl)amino)-2-oxoethyl)pyrrolidin-3-yl)oxy)isoxazole-5-carboxamide]	7.00 to 8.00
CNC(=O)c1cc(O[C@H]2CCN(CC(=O)Nc3cccc4c(-c5nc(Nc6cc(C)n(C)n6)ncc5C)c[nH]c34)C2)no1 [Example 123, (S)-3-((1-(2-((3-(2-((1,5-dimethyl-1H-pyrazol-3-yl)amino)-5-methylpyrimidin-4-yl)-1H-indol-7-yl)amino)-2-oxoethyl)pyrrolidin-3-yl)oxy)-N-methylisoxazole-5-carboxamide]	7.00 to 8.00
Cc1cnc(Nc2cc(C)n(C)n2)nc1-c1c[nH]c2c(NC(=O)CN3CC[C@H](Oc4cc(C(=O)NC5CC5)on4)C3)cccc12 [Example 124, (S)-N-cyclopropyl-3-((1-(2-((3-(2-((1,5-dimethyl-1H-pyrazol-3-yl)amino)-5-methylpyrimidin-4-yl)-1H-indol-7-yl)amino)-2-oxoethyl)pyrrolidin-3-yl)oxy)isoxazole-5-carboxamide]	> 8.00
Cc1cnc(Nc2cc(C)n(C)n2)nc1-c1c[nH]c2c(NC(=O)CN3CC[C@H](Oc4cc(C(=O)N(C)C)on4)C3)cccc12 [Example 125, (S)-3-((1-(2-((3-(2-((1,5-dimethyl-1H-pyrazol-3-yl)amino)-5-methylpyrimidin-4-yl)-1H-indol-7-yl)amino)-2-oxoethyl)pyrrolidin-3-yl)oxy)-N,N-dimethylisoxazole-5-carboxamide]	7.00 to 8.00
Cc1cnc(Nc2cc(C)n(C)n2)nc1-c1c[nH]c2c(NC(=O)CN3CC[C@H](Oc4ncc(C(=O)NC5CC5)o4)C3)cccc12 [Example 126, (S)-N-cyclopropyl-2-((1-(2-((3-(2-((1,5-dimethyl-1H-pyrazol-3-yl)amino)-5-methylpyrimidin-4-yl)-1H-indol-7-yl)amino)-2-oxoethyl)pyrrolidin-3-yl)oxy)oxazole-5-carboxamide]	7.00 to 8.00
Cc1cnc(Nc2cc(C)n(C)n2)nc1-c1c[nH]c2c(NC(=O)CN3CC[C@H](Oc4nc(C(=O)NC5CC5)co4)C3)cccc12 [Example 127, (S)-N-cyclopropyl-2-((1-(2-((3-(2-((1,5-dimethyl-1H-pyrazol-3-yl)amino)-5-methylpyrimidin-4-yl)-1H-indol-7-yl)amino)-2-oxoethyl)pyrrolidin-3-yl)oxy)oxazole-4-carboxamide]	7.00 to 8.00
Cc1cnc(Nc2cc(C)n(C)n2)nc1-c1c[nH]c2c(NC(=O)CN3CC[C@H](Oc4nccc(C(=O)O)n4)C3)cccc12 [Example 128, (S)-2-((1-(2-((3-(2-((1,5-dimethyl-1H-pyrazol-3-yl)amino)-5-methylpyrimidin-4-yl)-1H-indol-7-yl)amino)-2-oxoethyl)pyrrolidin-3-yl)oxy)pyrimidine-4-carboxylic acid]	7.00 to 8.00
Cc1cnc(Nc2cc(C)n(C)n2)nc1-c1c[nH]c2c(NC(=O)CN3CC[C@H](Oc4nccc(C(N)=O)n4)C3)cccc12 [Example 129, (S)-2-((1-(2-((3-(2-((1,5-dimethyl-1H-pyrazol-3-yl)amino)-5-methylpyrimidin-4-yl)-1H-indol-7-yl)amino)-2-oxoethyl)pyrrolidin-3-yl)oxy)pyrimidine-4-carboxamide]	7.00 to 8.00
CNC(=O)c1ccnc(O[C@H]2CCN(CC(=O)Nc3cccc4c(-c5nc(Nc6cc(C)n(C)n6)ncc5C)c[nH]c34)C2)n1 [Example 130, (S)-2-((1-(2-((3-(2-((1,5-dimethyl-1H-pyrazol-3-yl)amino)-5-methylpyrimidin-4-yl)-1H-indol-7-yl)amino)-2-oxoethyl)pyrrolidin-3-yl)oxy)-N-methylpyrimidine-4-carboxamide]	7.00 to 8.00
Cc1cnc(Nc2cc(C)n(C)n2)nc1-c1c[nH]c2c(NC(=O)CN3CC[C@H](Oc4nccc(C(=O)N(C)C)n4)C3)cccc12 [Example 131, (S)-2-((1-(2-((3-(2-((1,5-dimethyl-1H-pyrazol-3-yl)amino)-5-methylpyrimidin-4-yl)-1H-indol-7-yl)amino)-2-oxoethyl)pyrrolidin-3-yl)oxy)-N,N-dimethylpyrimidine-4-carboxamide]	7.00 to 8.00
Cc1cnc(Nc2cc(C)n(C)n2)nc1-c1c[nH]c2c(NC(=O)CN3CC[C@H](Oc4cncc(C(N)=O)n4)C3)cccc12 [Example 132, (S)-6-((1-(2-((3-(2-((1,5-dimethyl-1H-pyrazol-3-yl)amino)-5-methylpyrimidin-4-yl)-1H-indol-7-yl)amino)-2-oxoethyl)pyrrolidin-3-yl)oxy)pyrazine-2-carboxamide]	> 8.00
CNC(=O)c1cncc(O[C@H]2CCN(CC(=O)Nc3cccc4c(-c5nc(Nc6cc(C)n(C)n6)ncc5C)c[nH]c34)C2)n1 [Example 133, (S)-6-((1-(2-((3-(2-((1,5-dimethyl-1H-pyrazol-3-yl)amino)-5-methylpyrimidin-4-yl)-1H-indol-7-yl)amino)-2-oxoethyl)pyrrolidin-3-yl)oxy)-N-methylpyrazine-2-carboxamide]	> 8.00
Cc1cnc(Nc2cc(C)n(C)n2)nc1-c1c[nH]c2c(NC(=O)CN3CC[C@H](Oc4ncnc(N)n4)C3)cccc12 [Example 134, (S)-2-(3-((4-amino-1,3,5-triazin-2-yl)oxy)pyrrolidin-1-yl)-N-(3-(2-((1,5-dimethyl-1H-pyrazol-3-yl)amino)-5-methylpyrimidin-4-yl)-1H-indol-7-yl)acetamide]	> 8.00
CNc1ncnc(O[C@H]2CCN(CC(=O)Nc3cccc4c(-c5nc(Nc6cc(C)n(C)n6)ncc5C)c[nH]c34)C2)n1 [Example 135, (S)-N-(3-(2-((1,5-dimethyl-1H-pyrazol-3-yl)amino)-5-methylpyrimidin-4-yl)-1H-indol-7-yl)-2-(3-((4-(methylamino)-1,3,5-triazin-2-yl)oxy)pyrrolidin-1-yl)acetamide]	> 8.00
